In PMC11492252 (Heliyon, 2024):

Key:
[1] = system: Escherichia coli (E. coli); assay: Antimicrobial MIC, broth microdilution; type: cell-based
[2] = system: Candida albicans (C. albicans); assay: Antifungal MIC, broth microdilution; type: cell-based

MIC [1] [µg/mL]	SMILES	MIC [2] [µg/mL]
< 32	CC(=O)OCC1=C(C(=O)O)N2C(=O)[C@@H](NC(=O)Cc3cccs3)[C@H]2SC1 [Cephalothin]	
	C[C@@H]1C[C@@H]([C@H](O)CC2CC(=O)NC(=O)C2)C(=O)[C@@H](C)C1 [Cycloheximide]	< 201
